Source: article PMC4926326, “Synthesis, Biological Activity, and Apoptotic Properties of NO-Donor/Enmein-Type ent-Kauranoid Hybrids” (International Journal of Molecular Sciences, 2016)
Converted amounts (≈) assume the structure as drawn.

Tests used:
[1] = tested on: Bel-7402 hepatoma cell line; test: MTT antiproliferative assay; type: cell-based, human
Experimental: (§1) The antiproliferative activity of 9a–i against four human cancer cell lines K562 leukemia cell line, MGC-803 gastric cancer cell line, CaEs-17 esophageal cancer cell line, and Bel-7402 hepatoma cell line, and human normal liver cells L-02 was evaluated by MTT assay (Table 2).
(§2) MTT assay was developed to monitor mammalian cell survival and proliferation in vitro [32]. CaEs-17 cells (K562, Bel-7402 and MGC-803 cells) from American Type Culture Collection (ATCC, Manassas, VA, USA) were cultivated in RPMI-1640 medium supplemented with 5% fetal bovine serum (v/v), 100 U/mL penicillin, and […] streptomycin. Cells (5 × 10^4 cell/mL) at the log phase of their growth cycle were added to each well of a 96-well plate (100 µL/well) and incubated for 24 h at 37 °C in a humidified atmosphere of 5% CO2. Then, cells were treated with or without test compounds in different concentrations. After 72 h, 5 mg/mL MTT solution (20 µL per well) was added. Cells were incubated at 37 °C. After 4 h, MTT solution was removed and DMSO was added to each well (150 µL). Ten minutes later at room temperature, the optical density (OD) values were measured at the wavelength of 490 nm on a Microplate Reader NO. 550 (BIO-RAD Instruments Inc., Hercules, CA, USA). In this experiment, 10 µg/mL of Taxol was used as the positive control and 0.1% DMSO was used as the negative reference.

K562 leukemia cell line = test: MTT antiproliferative assay; type: cell-based, human; conditions: Homo sapiens, K562, 72 h, MTT, 72 h, mean ± SD of three experiments; read-out: IC50 K562
Experimental: as §1, §2

[2] = tested on: MGC-803 gastric cancer cell line; test: MTT antiproliferative assay; type: cell-based, human; conditions: Homo sapiens, MGC-803, 72 h, MTT, 72 h, mean ± SD of three experiments; read-out: IC50 MGC-803
Experimental: as §1, §2

Bel-7402 cells [3] = test: Mitochondrial membrane potential, JC-1 staining, flow cytometry; type: cell-based, human; conditions: 48 h, 0 μM 4.62%
Experimental: In the field of cancer, cellular apoptosis plays a very important role. The loss of mitochondrial membrane potential is a key event during drug-induced apoptosis. In order to investigate the mitochondria related effect of 9f, the fluorescent probe JC-1 (Keygen, KGA601, Nanjing, China) was used to detect the changes on mitochondrial membrane potential. Before Bel-7402 cells were stained with JC-1, cells were incubated with 0, 0.15, 0.3, and 0.6 μM of 9f. Then, the flow cytometry analysis was carried out to determine the cell numbers with collapsed mitochondria in different cell groups (Figure 4).
Bel-7402 cells were cultured in six-well plates after treatment with 9f or vehicles for 48 h. The cells were cells were collected by trypsinization, washed with PBS (Sigma Chemical Co., Shanghai, China) and stained according to the manufacturer’s instruction (Keygen, KGA601, Nanjing, China) with the lipophilic cationic dye JC-1. The flow cytometry analysis was carried out to monitor the percentage of cells with healthy or collapsed mitochondrial membrane potentials.

[4] = tested on: human normal liver cells L-02; test: MTT assay on normal cells; type: cell-based; conditions: MTT, 72 h, normal liver cells, mean ± SD of three experiments, read-out: IC50 L-02
Experimental: as §1, §2

Bel-7402 cells [5] = test: Cell cycle distribution by PI staining and flow cytometry; type: cell-based, human; conditions: 48 h, control 25.51%
Description: Cell cycle arrest is an important sign for inhibition of proliferation and the series of events that take place in a cell leading to its division and replication. […] As the inhibitory effect of 9f on cell proliferation was observed, we next assessed the effect on the cell cycle distribution of Bel-7402 cells by flow cytometry (Figure 2). […] Compound 9f could influence Bel-7402 cell cycle progression at low micromolar concentrations in a dose-dependent manner.
Bel-7402 cells (5.0 × 10^3 cells/well) were plated in 6-well plates and incubated for 24 h, and then incubated with different concentrations (0.25, 0.5 and 1 μM) of 9f at 37 °C for 48 h. After 48 h treatment, cells were treated with 70% ethanol and RNase, sequentially, and stained with PI [34]. Cellular DNA content was measured by a flow cytometer for cell cycle distribution analysis.

[6] = tested on: Staphylococcus aureus (ATCC 29213); test: Antibacterial assay, microbroth dilution MIC; type: cell-based; conditions: Staphylococcus aureus, ATCC29213; 35 °C, 18 h; read-out: MIC S. aureus
Description: (§3) The antibacterial activity of NO donor/enmein-type ent-kauranoid hybrids 9a–i against the Gram-negative bacterium Escherichia coli (ATCC 25922), Gram-positive bacterium Staphylococcus aureus (ATCC 29213) and Bacillus subtilis (CMCC 63501), and the fungus Monilia albicans (ATCC 10231) was first disclosed and summarized in Table 1. […] Thus, the introduction of NO-donor substituent groups at the 14-position of enmein-type 6,7-seco-ent-kauranoid could improve antimicrobial activity against S. aureus and B. subtilis.
(§4) The minimal inhibitory concentrations (MICs) were carried out by microbroth dilution method described by the Clinical Laboratory Standards Institute. A stock solution of all the target compounds was prepared with DMSO-medium (1:2), and then graded quantities of the test compounds were diluted with medium. The specified concentration suspension of fungus and bacterium contained approximately 10^3, and 10^5 CFU/mL was added into microtitration plates. The inoculated 96-well plates were incubated at 35 °C for 18 h. MIC was defined as the lowest concentrations that prevented visible growth of the bacteria.

[7] = tested on: Bacillus subtilis (CMCC 63501); test: Antibacterial assay, microbroth dilution MIC; type: cell-based; conditions: Bacillus subtilis, CMCC63501; 35 °C, 18 h; read-out: MIC B. subtilis
Description: as §3, §4

[8] = tested on: Escherichia coli (ATCC 25922); test: Antibacterial assay, microbroth dilution MIC; type: cell-based; conditions: Escherichia coli, ATCC25922; 35 °C, 18 h; read-out: MIC E. coli
Description: as §3, §4

[9] = tested on: Monilia albicans (ATCC 10231); test: Antifungal assay, microbroth dilution MIC; type: cell-based; conditions: Candida albicans, ATCC10231; 35 °C, 18 h; read-out: MIC M. albicans
Description: as §3, §4

[10] = tested on: CaEs-17 esophageal cancer cell line; test: MTT antiproliferative assay; type: cell-based; conditions: Homo sapiens, CaEs17; MTT, 72 h, mean ± SD of three experiments; read-out: IC50 CaEs-17
Experimental: as §1, §2

Bel-7402 cells [11] = test: Apoptosis by Annexin-V and PI double staining, flow cytometry; type: cell-based, human; conditions: 72 h; for total percentage of apoptotic cells (early and late, Q2 + Q4): vehicle 7.88%
Experimental: To examine the potent cancer cell antiproliferative effect of 9f on Bel-7402 cells, the number of apoptotic cells was monitored using flow cytometry. The total percentage of apoptotic cells (early and late, Q2 + Q4) was 7.88% treated with a vehicle alone.
Bel-7402 cells were incubated with different concentrations (0.25, 0.5 and 1 μM) of 9f for 72 h. Then, Annexin-V and PI double staining was used to detect apoptotic cells to analyze apoptosis according to the manufacturer’s instructions by flow cytometry.

IC50 ([1]; Homo sapiens, Bel-7402, MTT, 72 h, mean ± SD of three experiments, read-out: IC50 Bel-7402): 0.72 ± 0.04 µM
IC50 (K562 leukemia cell line): 1.68 ± 0.12 µM
IC50 [2]: 1.11 ± 0.05 µM
MIC [6]: 32 mg/L (≈ 40.4 µM)
MIC [7]: 64 mg/L (≈ 80.7 µM)
MIC [8]: > 100 mg/L
MIC [9]: > 100 mg/L
melting point: 128 to 130 °C
IC50 [10]: 3.6 ± 0.12 µM
SMILES: C=C1C(=O)[C@@]23C(=O)O[C@H]4CCC(C)(C)[C@H]5[C@H](O)OC[C@@]45[C@@H]2CC[C@@H]1[C@H]3OC(=O)c1ccccc1C(=O)OCCCOc1no[n+]([O-])c1S(=O)(=O)c1ccccc1 [Compound 9f]
SI (selectivity index) ([1]; SI = IC50, L-02/IC50, Bel-7402): 26.1
percentage of apoptotic cells (collapsed mitochondria, JC-1) (Bel-7402 cells [3]; 0.15 μM): 8.81%
percentage of apoptotic cells (collapsed mitochondria, JC-1) (Bel-7402 cells [3]; 0.3 μM): 21.82%
percentage of apoptotic cells (collapsed mitochondria, JC-1) (Bel-7402 cells [3]; 0.6 μM): 25.98%
IC50 [4]: 18.8 ± 1.25 µM
cells in S phase (Bel-7402 cells [5]; 0.25 μM): 31.78%
cells in S phase (Bel-7402 cells [5]; 0.5 μM): 45.33%
cells in S phase (Bel-7402 cells [5]; 1 μM): 49.78%
apoptotic cells, fold of control group (Bel-7402 cells [11]; 0.25 μM): 2.76 fold
total percentage of apoptotic cells (early and late, Q2 + Q4) (Bel-7402 cells [11]; 0.25 μM): 21.74%
apoptotic cells, fold of control group (Bel-7402 cells [11]; 0.5 μM): 4.54 fold
total percentage of apoptotic cells (early and late, Q2 + Q4) (Bel-7402 cells [11]; 0.5 μM): 35.78%
apoptotic cells, fold of control group (Bel-7402 cells [11]; 1 μM): 8.01 fold
total percentage of apoptotic cells (early and late, Q2 + Q4) (Bel-7402 cells [11]; 1 μM): 63.15%
